Key:
cortical neurons = assay: vincristine challenge of cortical neurons, LDH assay; format: cell-based, rat; conditions: 20 hour vincristine (300 nM)
Experimental: (§1) Cortical neurons were isolated using the following procedure. Rat E18 cortices devoid of meninges were dissected into ice-cold neurobasal media (Invitrogen). Cortices were dissociated in a final concentration of 0.1% trypsin/PBS (Worthington) for 30 minutes at 37° C. A final concentration of 0.1% RNase (Roche) was added to the tube and tissue was incubated at room temperature for 1 minute. Tissue was washed once with warm neurobasal media and the tissue was allowed to settle in the tube before 1 mL of neurobasal media containing 2% B27 supplement (Invitrogen) was added. Tissue was dissociated by trituration with a P1000 pipet (Rainin). The cells were counted and, for some experiments, transfected with siRNAs using a Biosystem 96-well nucleofector (Amaxa).
(§2) Cells were plated in 6- or 8-well chambers or 96-well poly-D-lysine coated dishes (BD Biosciences) at plated cell densities of 2×10^6 cells/well, 1.25-2×10^5 cells/well, or 1×10^4 cells/well, respectively, for siRNA experiments (densities that allow for some cell death normally associated with the electroporation process). […] Gene silencing was assayed 3-4 days after plating by quantitative reverse transcriptase polymerase chain reaction (qRT-PCR). […] Each reaction containing 10 ng of RNA was run in triplicate using the Quantifect SYBR Green RT-PCR kit (Qiagen) with DLK-, JNK1-, JNK2-, or JNK3-specific primers. […]

[1] = vincristine challenge of cortical neurons, viability assay; format: cell-based; conditions: rat, primary E18 cortical neurons; 12 hour vincristine (300 nM); read-out: % Viability (normalized)
Experimental: as §1, §2

[2] = toxin-induced degeneration of sympathetic neurons (MTT assay); format: cell-based; conditions: Sprague-Dawley, rat, primary sympathetic neurons from cervical ganglia, 24 hour vincristine, read-out: % viability (normalized)
Experimental: Sympathetic cervical ganglia were dissected from postnatal day 1 Sprague-Dawley rats (Charles River Labs) and collected in a dish containing Ultraculture media (Lonza) with 5% fetal bovine serum (Invitrogen). Ganglia were washed twice with serum-free Ultraculture media, and a final concentration of 0.1% trypsin (Worthington) was added and incubated with the tissue at 37° C. for 30 minutes. One percent DNase (Roche) solution in PBS was added to the ganglia and incubated at room temperature for 1-2 minutes. Ganglia were washed with Ultraculture and allowed to settle to the bottom of the tube. All wash media were removed and 1 mL plating media containing Ultraculture, 5% rat serum, 1% penicillin-streptomycin, 1% glutamax, 7 μM cytosine arabinoside (Sigma), and 50 ng/mL nerve growth factor (2.5S, Cedarlane Laboratory) was added to the tube. Ganglia were dissociated by trituration using a pipet (Rainin). The cell slurry was filtered over a […] cell strainer (Falcon) and cell number was counted. Sympathetic neurons were plated at a density of 5000-7500 cells/well (96-well dish), 200,000 cells/well (6-well plate), or 100,000 cells/well (8-well chamber slide) and grown for 4-5 days in 5% CO2 at 37° C. Every other day neurons were fed with fresh plating media containing 5-10 ng/mL NGF.
NGF withdrawal assays were performed as described in Example 14A. […]

With `CC[C@]1(O)C[C@H]2CN(CCc3c([nH]c4ccccc34)[C@@](C(=O)OC)(c3cc4c(cc3OC)N(C=O)[C@H]3[C@@](O)(C(=O)OC)[C@H](OC(C)=O)[C@]5(CC)C=CCN6CC[C@]43[C@@H]65)C2)C1` [vincristine] the “% cell death (normalized)” value (cortical neurons) was 100%, the viability at 12 h, 0.3 µM [1] was 77% and the viability at 24 h [2] was 28%.

Source: patent publication US20140328940A1, “MODULATION OF AXON DEGENERATION” (Genentech, Inc., priority 2009, published 2014)
